Molecules are shown by their SMILES. “Also recorded” adds a separate entry of the source.

For data set [1] the following is noted: literature values; cited from earlier work.
The conditions of data set [2]: 95° C. for several days; cited from earlier work.
For data set [3], the system named is pUC118. Kind of data set: Photochemical DNA cleavage by Cu(II) diazo complex, agarose gel (Example VI). The conditions noted are these: 25 μm, 20° C.; for DNA forms in thermal and photochemical control studies: 1 hour incubation or 455 nm light, lanes 3-11. Type of data set: biochemical. As to the method:
FIG. 10 illustrates DNA-cleavage of 50 μM pUC 118 plasmid DNA by bis(9-diazo-4,5-diazafluorene)copper(II) nitrate following 455 nm photolysis for 1 hour at 20° C. pursuant to 2% agarose gel electrophoresis.
FIG. 10 illustrates the DNA cleavage of 50 μM pUC118 by this compound following 455 nm photolysis for 1 hour at 20° C. (agarose gel, 2%).
Three forms of […] plasmid DNA were prepared for use in the […] assay. Form I was supercoiled plasmid. Form II was nicked plasmid. Form III was linear plasmid. The three plasmid forms were subjected to 11 lanes of varying conditions. Lane 1 pertained to the DNA forms alone. Lane 2 involved an EcoR1 digest of the DNA, which was used as a marker. In lane 3, the DNA was subjected for 1 hour to light at a wavelength of 455 nm. In lane 4, the DNA was subjected to 25 μm Cu(II) (diazafluorenone)2^2+ for 1 hour incubation. In lane 5, the DNA was subjected to 25 μm Cu(II) (diazafluorenone)2^2+ in the presence of light at a wavelength of 455 nm for 1 hour. Lane 6 subjected the DNA to 25 μm of 9-diazafluorene in the presence of light at a wavelength of 455 nm for 1 hour. In lane 7, the DNA was subjected to 25 μm 9-diazo-4,5-diazafluorene in the presence of light at a wavelength of 455 nm for 1 hour. In lane 8, the DNA was subjected to 25 μm bis(9-diazo-4,5-diazafluorene)copper(II) nitrate rapid quench. In lane 9, the DNA was subjected to 25 μm bis(9-diazo-4,5-diazafluorene)copper(II) nitrate for 1 hour incubation. In lane 10, the DNA was subjected to 25 μm bis(9-diazo-4,5-diazafluorene)copper(II) nitrate for 1 hour incubation at 37° C. In lane 11, the DNA was subjected to 25 μm bis(9-diazo-4,5-diazafluorene)copper(II) nitrate for 1 hour at a wavelength of 455 nm.

The subject of data set [4] is pUC 118 plasmid DNA. Kind of data set: Photoinduced cleavage of pUC 118 plasmid DNA by compound 5, agarose gel electrophoresis (Example IV). Type of data set: biochemical. The method, then:
FIG. 8 illustrates the photoinduced DNA-cleavage of 30 μM/bp of pUC 118 plasmid DNA by 300 μM of compound 5 following 400 nm photolysis for 12 hours at 20° C. pursuant to 2% agarose gel electrophoresis.
Cleavage ability was determined by its effectiveness in converting circular supercoiled DNA (form I) to circular relaxed DNA (form II) and linear DNA (form III). FIG. 8 illustrates the agarose gel electrophoresis of photolysis products of 300 μM 5 in the presence of pUC 118 plasmid DNA (30 μM/bp). Solutions were irradiated for 12 hours in 1:9 DMSO:Tris buffer (20 mM, pH 7.55) at 400 nm. Photolyses were performed at 400 NM (rather than 455 NM) due to a soluatochronic blue shift in the optical absorption spectrum.

Data set [5] can be described thus: Anaerobic photolysis in acetonitrile at 345 nm and 455 nm monitored by UV/Vis spectrophotometry. Format: physicochemical. The conditions noted are these: for Photolysis reactivity of free ligand / kobs of photolysis (first order): acetonitrile; for kobs of photolysis (first order): anaerobic. As to the method:
FIG. 7 depicts electronic absorption profiles of anaerobic photolyses of […] acetonitrile solutions of compound 5 at: (a) 345 nm; and (b) 455 nm.
Although the CT excited states appeared to satisfy the energy requirement, it was unknown if sufficient excited state lifetime existed to drive photodecomposition of the ligand. […] In both cases, significant photobleaching was observed, consistent with formation of Fe(II) in solution. This observation was further supported by the reemergence of color following aerial oxidation.
This can be attributed to the greater extinction coefficient at 345 nm (ε=9000 M^−1cm^−1) relative to 455 nm (ε=5450 M^−1cm^−1), and the simultaneous excitation of the LMCT and n-π* transitions of the Fe(III) compound, both of which lead to denitrogenation.
To investigate this dual state hypothesis, identical photolyses were carried out on solutions of 4 in acetonitrile.

Data set [6] in a line: N2 extrusion on photolysis, headspace GC/MS. Format: physicochemical. The conditions noted are these: degassed benzonitrile under argon, average of 4 trials. The method, then: To correlate the observed reactivity with N2 extrusion, a series of wavelength dependent photolyses were performed on 800 μL solutions of 5 under argon in degassed benzonitrile. From headspace GC/MS analysis, N2 production was gauged by comparison of the N2/O2 ratios above the photolyzed samples relative to unphotolyzed controls. […] Taken together, these experiments provide compelling evidence that the overall strategy to induce radical formation from CT excited states is indeed operative.

The nature of data set [7]: Thermal reactivity of Pd metalloenediynes. Format: physicochemical. The following applies: room temperature. The method, then:
The thermal reactivity of the complex was as follows. […] The reaction was followed by ^31p NMR analysis. The chemical shift of the complex was −5.71 ppm while that of the free ligand was −32.1 ppm. After 11 hours, there was evidence of the complex, free ligand, and 2 other resonances at −10.6 ppm and 25.4 ppm. […] A shift downfield was expected for the cyclized product and this could help explain the resonance at 25.4 ppm. […] What may have happened is that a ligand dissociated from the metal after cyclizing (−10.6 ppm) and then it reassociated with the metal (25.5 ppm). From the crystal structure, the environment around the metal was strained as is evident in the Pd—P—C bending. Additionally, the bite-angle of the resulting cyclized product, 1,2-bis(diphenylphosphino)naphthalene, would be smaller than that which would be required for tetrahedral geometry. This dissociation/reassociation may be slow enough to be detected on the NMR timescale.
Although crystallographic structural characterization of Pd(dppeb)Cl2 is unavailable, the d^8 Pd2^+ geometry is likely square planar with P—Pd—P angles near 90° which would reduce the alkyne carbon termini distances and lower the thermal barrier to cyclization. […]

Data set [8] relates to HIV. The following applies: human, in vivo; cited from earlier work.

As for `C(#CP(c1ccccc1)c1ccccc1)c1ccccc1C#CP(c1ccccc1)c1ccccc1`, the “Bergman cyclization temperature reported in the literature” value in data set [1] was 243 °C. The “Thermal stability in the presence of a hydrogen donor” value in data set [2] is “stable”.

`[N-]=[N+]=C1c2cccnc2-c2ncccc21` [9-diazo-4,5-diazafluorene, reference compound]: the “DNA forms in thermal and photochemical control studies” value in data set [3] is “very small and comparable amounts of the nicked form; also recorded: did not exhibit any preferential thermal or photochemical DNA cleavage”.

As for `O=c1c2ccccc2nnn1O` [Compound 4, 3-Hydroxy-1,2,3-benzotriazine-4(3H)-one, reference compound], the “DNA forms produced by photolysis of free ligand” value in data set [4] (900 μM free ligand, 400 nm, 12 hours, lane 6) was “a small amount of form II”. Further, the “Photolysis reactivity of free ligand” value in data set [5] (345 nm) is recorded as “noticeably reduced reaction rate”; in data set [5] (455 nm), “no reactivity”.

On to `O=c1c2ccccc2nnn1[O-].O=c1c2ccccc2nnn1[O-].O=c1c2ccccc2nnn1[O-].[Fe+3]` [Compound 5, Fe(3-Hydroxy-1,2,3-benzotriazine-4(3H)-one)3], for which the “DNA forms produced by photolysis (form I supercoiled, form II nicked, form III linear)” value in data set [4] (300 μM 5, pUC 118 30 μM/bp, 400 nm, 12 hours, 1:9 DMSO:Tris buffer (20 mM, pH 7.55), lane 3) was “a mixture of linear and nicked forms”. The “DNA cleavage on thermal incubation” value in data set [4] (similar thermal incubation without light, lane 4) is reported as “no DNA cleavage”. The “Wavelength up to which reactivity was demonstrated” value in data set [5] is “up to 515 nm”. Besides, the “kobs of photolysis (first order)” value in data set [5] (345 nm) stood at 0.093 min⁻¹; in data set [5] (455 nm), 0.004 min⁻¹. Besides, the entries for the “Increased N2 content versus unphotolyzed controls” value in data set [6] (345 nm) and in data set [6] (455 nm) were 112% and 9.7%, respectively.

As for `C(#CP(c1ccccc1)c1ccccc1)c1ccccc1C#CP(c1ccccc1)c1ccccc1.C(#CP(c1ccccc1)c1ccccc1)c1ccccc1C#CP(c1ccccc1)c1ccccc1.[Pd]` [Pd(dppeb)2], the Thermal stability result in data set [7] is recorded as “stable at room temperature”.

In the case of `O=[N+]([O-])[O-].O=[N+]([O-])[O-].[Cu+2].[N-]=[N+]=C1c2cccnc2-c2ncccc21.[N-]=[N+]=C1c2cccnc2-c2ncccc21` [bis(9-diazo-4,5-diazafluorene)copper(II) nitrate], in data set [3], the “DNA forms in thermal and photochemical control studies” value was “very small and comparable amounts of the nicked form”. The “DNA forms after photolysis” value in data set [3] (455 nm, 1 hour, 10 mM Tris pH 7.6, 50 μM pUC118, lane 11) is “predominantly nicked DNA with a moderate amount of the linear form”.

On to `Nc1ccn([C@H]2CC[C@@H](CO)O2)c(=O)n1` [ddC, 2′3′-dideoxycytidine], for which the “Virustatic range in most patients” value in data set [8] is given as 0.005-0.25 mg/kg body weight.

These data come from patent publication US6828439B1, “Compounds, composition, and methods for photodynamic therapy” (Advanced Research and Technology Institute, Inc., priority 1999, dated 2004).
